In patent US8759481B2, “Peptide vaccines for cancers expressing tumor-associated antigens” (Oncotherapy Science, Inc., priority 2007, dated 2014):
Entries after “also recorded” stand apart in the source; their conditions may differ. Ends that are not written are not given here.

Tests used:
Assay type in all cases: cell-based, human
PK59 cancer cell line = assay: 51Cr release cytotoxicity assay; details: PK59 expressing KIF20A but not HLA-A24
Description: (§1) Cytotoxic activity was evaluated by a four-hour ^51Cr release assay. The target cells were pulsed with a 20 micro g/mL concentration of peptide overnight. The target cells were labeled with 100 micro Ci of Na2^51CrO4 at 37 degrees C. for one hour, and then washed three times with RPMI1640. The target cells (1×10^4/100 micro L) and 100 micro L of effector cells at various numbers with a total volume of 200 micro L were placed into a round-bottomed 96-well microtiter plate (Corning), and cultured at 37 degrees C. in a CO2 incubator for four hours. After culturing, 100 micro L of the supernatant was collected from each well, and measured the radioactivity using a gamma counter. Spontaneous release was the radioactivity from the target cells with medium in the absence of effector cells, and maximum release was the radioactivity from the target cells with 1 M HCl.
(§2) The Percentage of specific cytotoxicity was determined by calculating as following formula: % Specific lysis=[(experimental release−spontaneous release)/(maximum release−spontaneous release)]×100. Results Enhanced CDH3, EPHA4, ECT2, HIG2, INHBB, KIF20A, KNTC2, TTK and URLC10 Expression in Cancers
(§3) Furthermore, Cytotoxic activity was examined by cytotoxicity assay according to the protocols set forth in the “Materials and Methods” section above.

PK45P cancer cell line = assay: 51Cr release cytotoxicity assay; details: PK45P expressing both KIF20A and HLA-A24; listed as KIF20A-A24-9-305
Description: as §1, §2, §3

[1] = test system: peptide-pulsed A24-LCL cells; assay: CTL clones by limiting dilution, specific CTL activity; details: HLA-A24 peptides; vs target without peptide pulse
Description: The dilutions were made to have 0.3, 1, and 3 CTLs/well in 96 round-bottomed micro titer plate (Nalge Nunc International). CTLs were cultured with 7×10^4 cells/well of 2 kinds of human B-lymphoblastoid cell lines, 30 ng/ml of anti-CD3 antibody, and 125 U/ml of IL-2 in total of 150 micro 1/well of AIM-V containing 5% AS. 50 micro 1/well of IL-2 was added to the medium 10 days later so that IL-2 became 125 U/ml in the final concentration. CTL activity of CTLs was tested on the 14th day, and CTL clones were expanded using the same method above.
(§4) Briefly, peptide-pulsed A24-LCL or T2 cell (1×10^4/well) was prepared as stimulator cells. Cultured Cells in 48 wells or CTL clones after limiting dilution were used as responder cells. IFN-gamma ELISPOT assay and ELISA assay were performed under manufacture procedure.

[2] = test system: HEK293 transfected with full length KNTC2 gene and HLA-A*2402; assay: Specific CTL activity against transfected target cells; details: vs control transfectants; listed as KNTC2-A24-10-452
Description: as §4
(§5) The cDNA encoding an open reading frame of target genes or HLA-A02 or HLA-A24 was amplified by PCR. The PCR-amplified product was cloned into pcDNA3.1 myc-His vector (Invitrogen). The plasmids were transfected into the target cells, HLA-A02 and HLA-A24-null normal human cell line COS7 or 293T using lipofectamine (Invitrogen) according to the manufacturer's recommended procedures. Alternatively, the plasmid contained the target genes were transfected into A24-LCL by electroporation using GenePulserII (Biorad). Briefly, 2.5×10^6 A24-LCL cells were pulsed with 10 mcg prasmid at 140V and 1000 micro F. After 2 days from transfection, the transfected cells were treated with Cell dissociation solution and used as the target cells for CTL activity assay.
The established CTL line raised against these peptides were examined for their ability to recognize the target cells expressing KNTC2 and HLA-A*2402. […] HEK293 transfected with full length KNTC2 but not HLA-A*2402, HEK293 transfected with HLA-A*2402 but not full length KNTC2 and HEK293 transfected with HLA-A*2402 and pulsed with KNTC2-9-309 were prepared as controls.

[3] = test system: peptide-pulsed A24-LCL cells; assay: CTL line establishment, IFN-gamma ELISA; details: HLA-A24 peptides; vs target without peptide pulse
Summary of the method: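 CTL lines were expanded with MMC-inactivated B-lymphoblastoid feeders, 40 ng/ml anti-CD3 and IL-2 in AIM-V/5% AS. IFN-gamma ELISPOT identified specific wells, and ELISA determined established lines, using responders stimulated by peptide-pulsed A24-LCL or T2 cells at 1×10^4/well.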

[4] = test system: peptide-pulsed A24-LCL cells; assay: IFN-gamma ELISPOT assay (positive wells); details: HLA-A24 peptides; as compared to the control
Summary of the method: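 PBMC-derived DCs from HLA-A*2402 and/or A*0201 donors, pulsed with 20 micro g/ml peptide plus 3 micro g/ml beta 2-microglobulin, stimulated autologous CD8+ T cells three times (days 0, 7, 14). On day 21, responders were tested against peptide-pulsed A24-LCL or T2 cells by IFN-gamma ELISPOT. Values are reported as positive wells/wells tested; CTL lines confirmed by ELISA.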

peptide-pulsed T2 cells [5] = assay: CTL line establishment, IFN-gamma ELISA; details: HLA-A02 peptides; vs target without peptide pulse
Summary of the method: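 CTLs expanded with MMC-inactivated B-lymphoblastoid lines, 40 ng/ml anti-CD3 and IL-2 (120 IU/ml day 1, then 30 IU/ml on days 5, 8, 11). Peptide-pulsed T2 or A24-LCL stimulators (1×10^4/well) incubated with cultured wells or limiting-dilution clones as responders; IFN-gamma detected by ELISPOT (positive wells) and ELISA (established CTL lines).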

[6] = test system: COS7, Hek293 and 293T transfected with full length URLC10 gene and HLA-A*0201; assay: Specific CTL activity against transfected target cells; details: vs control transfectants; listed as URLC10-A02-10-211
Description: as §4, §5
The established CTL line raised against these peptides were examined for their ability to recognize the target cells endogenously expressing URLC10 and HLA-A*0201. […]

peptide-pulsed T2 cells [7] = assay: IFN-gamma ELISPOT assay (positive wells); details: HLA-A02 peptides; as compared to the control
Summary of the method: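 CD8+ T cells from HLA-A*2402 and/or HLA-A*0201 donors were stimulated 1:20 with autologous monocyte-derived DCs pulsed with 20 µg/ml peptide plus β2-microglobulin, in IL-7, with IL-2 added, restimulated on days 7 and 14. On day 21, IFN-γ ELISPOT against peptide-pulsed T2 or A24-LCL cells (1×10^4/well) scored wells as positive, with CTL lines confirmed by ELISA.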

TE5 cancer cell line = assay: 51Cr release cytotoxicity assay; details: TE5 expressing only ECT2
Description: as §1, §2, §3

TE6 cancer cell line = assay: 51Cr release cytotoxicity assay; details: TE6 endogenously expressing ECT2 and HLA-A24; listed as ECT2-A24-9-515
Description: as §1, §2, §3

[8] = test system: 293T transfected with HIG2 gene and/or HLA-A02; assay: 51Cr release cytotoxicity assay
Text: as §5
Cytotoxic activity was evaluated by a four-hour ^51Cr release assay. […] After culturing, 100 micro L of the supernatant was collected from each well, and measured the radioactivity using a gamma counter. Spontaneous release was the radioactivity from the target cells with medium in the absence of effector cells, and maximum release was the radioactivity from the target cells with 1 M HCl.
The Percentage of specific cytotoxicity was determined by calculating as following formula: % Specific lysis=[(experimental release−spontaneous release)/(maximum release−spontaneous release)]×100. […]

A498 cancer cell line = assay: 51Cr release cytotoxicity assay; details: A498 expressing only HIG2
Description: as §1, §2, §3

Caki-1 cancer cell line = assay: 51Cr release cytotoxicity assay; details: Caki-1 endogenously expressing HIG2 and HLA-A02; listed as HIG2-A02-9-4
Description: as §1, §2, §3

FFEIYNELL [SEQ ID NO: 174]
Cytotoxic activity against PK59 (Cr-release assay) (PK59 cancer cell line): did not show significant specific cytotoxic activity
Cytotoxic activity against PK45P (Cr-release assay) (PK45P cancer cell line): remarkably high cytotoxic effect; also recorded: very potent cytotoxic activity

SEQ ID NO: 214: HLA-A*2402 binding 10-mer peptide derived from KNTC2 (KYRAQVYVPL)
CTL activities of CTL clones against the peptide-pulsed target [1]: potent and specific CTL activities
Specific CTL activity against HEK293 transfected with both KNTC2 and HLA-A24 [2]: highest specific CTL activity
Establishment of CTL line, specific CTL activity against the peptide-pulsed target determined by ELISA [3]: CTL lines were established
IFN-gamma production by IFN-gamma ELISPOT assay [4]: potent IFN-gamma production

SEQ ID NO: 288: HLA-A*0201 binding 10-mer peptide derived from URLC10 (LLLASIAAGL)
Establishment of CTL line, specific CTL activity against the peptide-pulsed target determined by ELISA (peptide-pulsed T2 cells [5]): CTL line and clones, were established
Specific CTL activity against COS7, Hek293 and 293T transfected with both URLC10 and HLA-A02 [6]: highest specific CTL activity; also recorded: high specific CTL activity
IFN-gamma production by IFN-gamma ELISPOT assay (peptide-pulsed T2 cells [7]): potent IFN-gamma production

TYPPFVNFF [SEQ ID NO: 80, TYPPFVNFF]
Cytotoxic activity against TE5 (Cr-release assay) (TE5 cancer cell line): did not demonstrate the cytotoxic activity
Cytotoxic activity against TE6 (Cr-release assay) (TE6 cancer cell line): remarkably high cytotoxic effect; also recorded: very potent cytotoxic activity

VLNLYLLGV [SEQ ID NO: 117, VLNLYLLGV]
Cytotoxic activity against 293T transfected with both HIG2 gene and HLA-A02 (Cr-release assay) [8]: very potent cytotoxic activity
Cytotoxic activity against 293T transfected only HIG2 or only HLA-A02 (Cr-release assay) ([8]; control transfectants): did not demonstrate the cytotoxic activity
Cytotoxic activity against A498 (Cr-release assay) (A498 cancer cell line): did not demonstrate the cytotoxic activity
Cytotoxic activity against Caki-1 (Cr-release assay) (Caki-1 cancer cell line): remarkably high cytotoxic effect; also recorded: very potent cytotoxic activity
